# Experimental data from patent US20240158370A1, “CK1 alpha AND DUAL CK1 alpha / GSPT1 DEGRADING COMPOUNDS” (Innovo Therapeutics, Inc., priority 2022, published 2024).
# Key:
# Format in all cases: cell-based
# Conditions in all cases: six hours
# CK1α = target: T1, CK1α (Homo sapiens, UniProt P48729+Q96SW2); assay: HiBiT degradation assay, CK1α, Procedure A
# T1 construct: CSNK1A1-HiBit KI HEK293(LgBit) Cells; host or cells: HEK293(LgBit) knock-in cells
# Outline: (§1)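 10-pt dose response, 10–0.005 μM, 0.1% DMSO; cells 1×10^6/ml in DMEM/10% FBS, 6 h, 37° C; HiBiT lytic detection, luminescence; DC50 + Ymin by 4-parameter fit.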
# GSPT1 [1] = target: T2, GSPT1 (Homo sapiens, UniProt P15170+Q96SW2); assay: HiBiT degradation assay, GSPT1, Procedure B (Molt 4_hGSPT1_HiBIT cells); parameters: Molt 4_hGSPT1_HiBIT N-terminus tagged cells were generated using CRISPR technology; endogenous in cells; host or cells: Molt 4 cells, CRISPR-edited
# Procedure: Molt 4_hGSPT1_HiBIT N-terminus tagged cells were generated using CRISPR technology. Cells were maintained in RPMI media (Thermo Fisher Scientific, Catalog #11875-093) containing 10% Fetal Bovine Serum (Thermo Fisher Scientific, Catalog #16140071) 1% Penicillin-Streptomycin (Thermo Fisher Scientific, Catalog #25200056). Cells were maintained at 37° C. in a 5% CO2 environment.
# Compounds were spotted onto Cornin 384-Well, Cell Culture-Treated, Flat-Bottom, Low Flange Microplate (Fisher Scientific, Catalog #07-201-013) using a Tecan D300e digital dispenser. Ten-point dose response curves spanning from 10 μM to 0.005 μM with a 0.1% DMSO tolerance were used.
# Cells were centrifuged for 5 minutes at 1200 RPMs. Cell culture media was aspirated off and cells were resuspended with RPMI+10% FBS. Cell density was determined using a Denovix CellDrop BF cell counter. Cell density was adjusted to 1×10^6 cells/ml. 40 μl of cells was added to compound treated tissue culture plates and incubated for six hours at 37° C. After six hours, cell culture plates were removed from tissue culture incubator and cooled to room temperature. 40 μl of Nano-GloHiBiT Lytic Detection Reagent (Promega, Catalog #N3040) was added to each well. Plates were placed on an orbital shaker (600 rpm) for 20 minutes. Luminescence was measured using an Envsion plate reader (Perkin Elmer). IC50 curves and Ymin were generated using a 4-parameter curve fit with GraphPad Prism software (Prism Corporation).
# Results from the HiBiT assay (DC50 (nM) and Ymin (% remaining)) are shown below. All CK1α data was generated according to Procedure A. GSPT1 data for Examples 1-600, 603-620 and 703-705 was generated according to Procedure A. GSPT1 data for Examples 601, 621-702 and 706-735 was generated according to Procedure B.
# GSPT1 [2] = target: T2, GSPT1; assay: HiBiT degradation assay, GSPT1, Procedure A; parameters: HiBit-GSPT1 KI HEK293(LgBit) Cells; host or cells: HEK293(LgBit) knock-in cells
# Outline: as §1
# T1 sequence (P48729 whole entry): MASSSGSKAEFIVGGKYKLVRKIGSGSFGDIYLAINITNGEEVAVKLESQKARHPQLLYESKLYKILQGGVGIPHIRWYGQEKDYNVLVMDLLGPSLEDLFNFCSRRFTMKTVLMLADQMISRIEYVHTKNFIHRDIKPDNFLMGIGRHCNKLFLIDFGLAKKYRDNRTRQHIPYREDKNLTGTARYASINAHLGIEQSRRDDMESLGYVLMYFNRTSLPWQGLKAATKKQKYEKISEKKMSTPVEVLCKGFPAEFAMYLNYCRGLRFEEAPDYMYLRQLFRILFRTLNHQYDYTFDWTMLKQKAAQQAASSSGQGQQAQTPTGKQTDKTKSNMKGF
# T1 sequence (Q96SW2 whole entry): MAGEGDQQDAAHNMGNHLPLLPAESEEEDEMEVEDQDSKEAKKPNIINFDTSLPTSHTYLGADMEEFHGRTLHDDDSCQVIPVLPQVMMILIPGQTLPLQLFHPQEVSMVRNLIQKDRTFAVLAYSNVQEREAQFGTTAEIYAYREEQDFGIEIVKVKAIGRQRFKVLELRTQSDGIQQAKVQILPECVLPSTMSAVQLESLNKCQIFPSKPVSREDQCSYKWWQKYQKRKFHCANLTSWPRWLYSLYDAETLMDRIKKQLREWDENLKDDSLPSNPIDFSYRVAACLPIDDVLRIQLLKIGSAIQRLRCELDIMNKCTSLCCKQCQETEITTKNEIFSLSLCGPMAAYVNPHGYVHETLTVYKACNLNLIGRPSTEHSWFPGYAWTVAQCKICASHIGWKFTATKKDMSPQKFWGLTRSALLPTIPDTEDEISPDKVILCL
# T1 sequence (Q16531 whole entry partner): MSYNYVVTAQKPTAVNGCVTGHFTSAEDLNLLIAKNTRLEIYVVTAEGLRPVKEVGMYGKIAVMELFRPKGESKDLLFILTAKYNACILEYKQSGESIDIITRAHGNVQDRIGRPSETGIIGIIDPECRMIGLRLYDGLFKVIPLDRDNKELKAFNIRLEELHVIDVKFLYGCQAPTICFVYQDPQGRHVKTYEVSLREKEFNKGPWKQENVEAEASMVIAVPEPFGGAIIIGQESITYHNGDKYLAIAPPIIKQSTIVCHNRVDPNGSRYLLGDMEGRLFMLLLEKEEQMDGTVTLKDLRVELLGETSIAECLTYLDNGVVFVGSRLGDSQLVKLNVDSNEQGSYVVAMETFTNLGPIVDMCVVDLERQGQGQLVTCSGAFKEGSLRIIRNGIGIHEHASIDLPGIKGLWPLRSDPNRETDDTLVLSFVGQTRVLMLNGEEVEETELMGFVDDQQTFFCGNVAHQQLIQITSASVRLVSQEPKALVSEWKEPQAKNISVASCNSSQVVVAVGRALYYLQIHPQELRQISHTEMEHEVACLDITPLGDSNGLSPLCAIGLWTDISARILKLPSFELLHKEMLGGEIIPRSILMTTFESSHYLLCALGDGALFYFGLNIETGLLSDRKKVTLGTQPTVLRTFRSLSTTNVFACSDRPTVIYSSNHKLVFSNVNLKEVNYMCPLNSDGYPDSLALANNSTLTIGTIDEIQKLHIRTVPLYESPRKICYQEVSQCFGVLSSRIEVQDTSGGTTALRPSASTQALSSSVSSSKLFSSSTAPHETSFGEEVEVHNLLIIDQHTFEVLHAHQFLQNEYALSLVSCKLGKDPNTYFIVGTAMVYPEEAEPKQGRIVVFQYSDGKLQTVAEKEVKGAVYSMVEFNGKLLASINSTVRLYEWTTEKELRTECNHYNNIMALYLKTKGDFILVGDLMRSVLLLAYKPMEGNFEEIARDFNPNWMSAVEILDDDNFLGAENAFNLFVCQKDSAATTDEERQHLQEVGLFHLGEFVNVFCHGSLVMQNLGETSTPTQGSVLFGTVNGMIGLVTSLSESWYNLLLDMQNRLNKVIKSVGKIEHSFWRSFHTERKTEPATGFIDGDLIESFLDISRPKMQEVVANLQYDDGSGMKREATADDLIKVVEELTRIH
# T2 sequence (P15170 whole entry): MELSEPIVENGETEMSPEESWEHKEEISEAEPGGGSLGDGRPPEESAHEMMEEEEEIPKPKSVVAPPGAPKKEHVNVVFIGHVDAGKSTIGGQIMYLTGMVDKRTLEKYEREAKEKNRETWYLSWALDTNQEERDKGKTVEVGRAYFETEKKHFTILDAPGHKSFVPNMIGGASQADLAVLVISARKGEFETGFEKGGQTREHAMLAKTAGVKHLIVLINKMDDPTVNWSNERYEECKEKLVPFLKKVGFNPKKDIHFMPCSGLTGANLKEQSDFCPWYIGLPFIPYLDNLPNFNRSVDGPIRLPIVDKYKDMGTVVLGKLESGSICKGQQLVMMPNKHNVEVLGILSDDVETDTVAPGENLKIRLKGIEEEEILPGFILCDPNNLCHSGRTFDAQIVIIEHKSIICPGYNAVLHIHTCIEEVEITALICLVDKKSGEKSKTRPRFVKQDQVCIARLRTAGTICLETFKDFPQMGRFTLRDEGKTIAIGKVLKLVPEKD
# T2 sequence (Q96SW2 whole entry): as the sequence (Q96SW2 whole entry) above
# T2 sequence (Q16531 whole entry partner): as the sequence (Q16531 whole entry partner) above
Structure (SMILES),CK1α Ymin (CK1α),DC50 (CK1α),DC50 (GSPT1 [1]),GSPT1 Ymin (GSPT1 [1]),DC50 (GSPT1 [2]),GSPT1 Ymin (GSPT1 [2])
"Cn1cc(-c2ccc3c(c2)CN(C2CCC(=O)NC2=O)C3=O)nc1[C@H]1CC[C@H](C(F)(F)F)CC1 (some centres unmarked) [Example 601, 3-(5-(1-methyl-2-((1r,4r)-4-(trifluoromethyl)cyclohexyl)-1H-imidazol-4-yl)-1-oxoisoindolin-2-yl)piperidine-2,6-dione]",E (E = >25-75% remaining),≥ 25 nM,≥ 25 nM,E (E = >25-75% remaining),,
"Cn1nc(-c2ccc3c(c2)CN(C2CCC(=O)NC2=O)C3=O)nc1N1CCOCC1 (centres unmarked) [Example 602, 3-(5-(1-methyl-5-morpholino-1H-1,2,4-triazol-3-yl)-1-oxoisoindolin-2-yl)piperidine-2,6-dione]",E (E = >25-75% remaining),< 25 nM,≥ 25 nM,F (F = >75-100% remaining),,
"Cn1nc(-c2ccc3c(c2)CN(C2CCC(=O)NC2=O)C3=O)nc1-c1ccc(F)cc1 (centres unmarked) [Example 623, 3-(5-(5-(4-fluorophenyl)-1-methyl-1H-1,2,4-triazol-3-yl)-1-oxoisoindolin-2-yl)piperidine-2,6-dione]",D (D = >10- 25% remaining),< 25 nM,< 25 nM,F (F = >75-100% remaining),,
COc1ccc(Cn2cc(-c3nc(-c4ccc5c(c4)CN(C4CCC(=O)NC4=O)C5=O)cn3C)cn2)cc1 (centres unmarked) [Example 625],C (C = 0-10% remaining),< 25 nM,≥ 25 nM,F (F = >75-100% remaining),,
Cn1cc(-c2ccc3c(c2)CN(C2CCC(=O)NC2=O)C3=O)nc1-c1ccc(F)c(F)c1 (centres unmarked) [Example 628],D (D = >10- 25% remaining),< 25 nM,≥ 25 nM,F (F = >75-100% remaining),,
Cn1cc(-c2ccc3c(c2)CN(C2CCC(=O)NC2=O)C3=O)nc1-c1ccc(C#N)cc1 (centres unmarked) [Example 633],D (D = >10- 25% remaining),< 25 nM,< 25 nM,F (F = >75-100% remaining),,
Cn1cc(-c2ccc3c(c2)CN(C2CCC(=O)NC2=O)C3=O)nc1-c1cccc(OC(F)(F)F)c1 (centres unmarked) [Example 637],D (D = >10- 25% remaining),< 25 nM,< 25 nM,F (F = >75-100% remaining),,
COc1cc(Cl)ccc1-c1nc(-c2ccc3c(c2)CN(C2CCC(=O)NC2=O)C3=O)cn1C (centres unmarked) [Example 638],C (C = 0-10% remaining),< 25 nM,< 25 nM,F (F = >75-100% remaining),,
Cc1ccc(Cl)cc1-c1nc(-c2ccc3c(c2)CN(C2CCC(=O)NC2=O)C3=O)cn1C (centres unmarked) [Example 640],C (C = 0-10% remaining),< 25 nM,≥ 25 nM,F (F = >75-100% remaining),,
Cn1cc(-c2ccc3c(c2)CN(C2CCC(=O)NC2=O)C3=O)nc1-c1cccc(F)c1C#N (centres unmarked) [Example 641],C (C = 0-10% remaining),< 25 nM,≥ 25 nM,F (F = >75-100% remaining),,
COc1ccc(Cl)cc1-c1nc(-c2ccc3c(c2)CN(C2CCC(=O)NC2=O)C3=O)cn1C (centres unmarked) [Example 643],D (D = >10- 25% remaining),< 25 nM,≥ 25 nM,F (F = >75-100% remaining),,
Cn1cc(-c2ccc3c(c2)CN(C2CCC(=O)NC2=O)C3=O)nc1-c1ccc(Cl)cc1F (centres unmarked) [Example 644],D (D = >10- 25% remaining),< 25 nM,≥ 25 nM,F (F = >75-100% remaining),,
Cn1cc(-c2ccc3c(c2)CN(C2CCC(=O)NC2=O)C3=O)nc1-c1ccc(F)c(Cl)c1 (centres unmarked) [Example 645],D (D = >10- 25% remaining),< 25 nM,≥ 25 nM,F (F = >75-100% remaining),,
Cn1cc(-c2ccc3c(c2)CN(C2CCC(=O)NC2=O)C3=O)nc1-c1cccs1 (centres unmarked) [Example 646],C (C = 0-10% remaining),< 25 nM,≥ 25 nM,F (F = >75-100% remaining),,
Cn1cc(-c2ccc3c(c2)CN(C2CCC(=O)NC2=O)C3=O)nc1-c1ccc(F)cc1Cl (centres unmarked) [Example 647],D (D = >10- 25% remaining),< 25 nM,≥ 25 nM,F (F = >75-100% remaining),,
Cc1ccc(-c2nc(-c3ccc4c(c3)CN(C3CCC(=O)NC3=O)C4=O)cn2C)c(Cl)c1 (centres unmarked) [Example 648],D (D = >10- 25% remaining),< 25 nM,< 25 nM,F (F = >75-100% remaining),,

# Further lines, results first:
CK1α Ymin (CK1α),DC50 (CK1α),DC50 (GSPT1 [1]),GSPT1 Ymin (GSPT1 [1]),DC50 (GSPT1 [2]),GSPT1 Ymin (GSPT1 [2]),Structure (SMILES)
C (C = 0-10% remaining),< 25 nM,< 25 nM,F (F = >75-100% remaining),,,Cn1cc(-c2ccc3c(c2)CN(C2CCC(=O)NC2=O)C3=O)nc1-c1ccccc1O (centres unmarked) [Example 624]
C (C = 0-10% remaining),< 25 nM,≥ 25 nM,F (F = >75-100% remaining),,,Cn1cc(-c2ccc3c(c2)CN(C2CCC(=O)NC2=O)C3=O)nc1-c1cccc(C(F)F)c1 (centres unmarked) [Example 626]
C (C = 0-10% remaining),< 25 nM,≥ 25 nM,E (E = >25-75% remaining),,,Cn1cc(-c2ccc3c(c2)CN(C2CCC(=O)NC2=O)C3=O)nc1-c1ccc(O)cc1 (centres unmarked) [Example 627]
C (C = 0-10% remaining),< 25 nM,≥ 25 nM,F (F = >75-100% remaining),,,Cn1cc(-c2ccc3c(c2)CN(C2CCC(=O)NC2=O)C3=O)nc1-c1ccc(Cl)cc1 (centres unmarked) [Example 629]
C (C = 0-10% remaining),≥ 25 nM,≥ 25 nM,F (F = >75-100% remaining),,,Cn1cc(-c2ccc3c(c2)CN(C2CCC(=O)NC2=O)C3=O)nc1-c1ccncc1 (centres unmarked) [Example 630]
C (C = 0-10% remaining),< 25 nM,≥ 25 nM,F (F = >75-100% remaining),,,Cn1cc(-c2ccc3c(c2)CN(C2CCC(=O)NC2=O)C3=O)nc1-c1cccc(F)c1 (centres unmarked) [Example 631]
D (D = >10- 25% remaining),< 25 nM,≥ 25 nM,F (F = >75-100% remaining),,,Cn1cc(-c2ccc3c(c2)CN(C2CCC(=O)NC2=O)C3=O)nc1-c1cccc(C#N)c1 (centres unmarked) [Example 632]
C (C = 0-10% remaining),< 25 nM,≥ 25 nM,E (E = >25-75% remaining),,,Cn1cc(-c2ccc3c(c2)CN(C2CCC(=O)NC2=O)C3=O)nc1-c1ccccc1N (centres unmarked) [Example 634]
C (C = 0-10% remaining),< 25 nM,≥ 25 nM,F (F = >75-100% remaining),,,Cn1cc(-c2ccc3c(c2)CN(C2CCC(=O)NC2=O)C3=O)nc1-c1cccc(Cl)c1 (centres unmarked) [Example 635]
C (C = 0-10% remaining),≥ 25 nM,≥ 25 nM,F (F = >75-100% remaining),,,Cn1cc(-c2ccc3c(c2)CN(C2CCC(=O)NC2=O)C3=O)nc1-c1cccc(CO)c1 (centres unmarked) [Example 636]
C (C = 0-10% remaining),< 25 nM,≥ 25 nM,E (E = >25-75% remaining),,,Cn1cc(-c2ccc3c(c2)CN(C2CCC(=O)NC2=O)C3=O)nc1-c1ccccc1Cl (centres unmarked) [Example 639]
C (C = 0-10% remaining),≥ 25 nM,< 25 nM,E (E = >25-75% remaining),,,Cn1cc(-c2ccc3c(c2)CN(C2CCC(=O)NC2=O)C3=O)nc1-c1cccc(O)c1 (centres unmarked) [Example 642]
C (C = 0-10% remaining),< 25 nM,,,≥ 25 nM,F (F = >75-100% remaining),"O=C1CCC(N2Cc3cc(-c4cn(C5CC5)c(-c5ccccc5)n4)ccc3C2=O)C(=O)N1 (centres unmarked) [Example 704, 3-(5-(1-cyclopropyl-2-phenyl-1H-imidazol-4-yl)-1-oxoisoindolin-2-yl)piperidine-2,6-dione]"
